Measurements published in patent US8802664B2 (Bioproject, priority 2010, dated 2014).
Where a name gives a salt, the structure may show the parent alone.

Legend:
[1] = target: T1, human H4 receptor (Homo sapiens, UniProt Q9H3N8); assay: [3H]Histamine binding on membranes of CHO cells stably expressing human H4 receptor
T1 construct: expressed in transfected cells
In short: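 Filter-bound counts (liquid scintillation) gave H4 binding. Incubation used 20 μg membrane protein/well in Tris/HCl 50 mM plus EDTA 0.5 mM at pH 7.4, and 10 μM JNJ 7777120 set nonspecific binding. Filtration on GF/B pretreated with polyethyleneimine stopped the reaction.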

Ki or IC50 activity class [1] [nM] | melting point [°C] | SMILES
< 30 | 105 | CCc1cccc(C(OC2CCN(C)CC2)c2nc3ccccc3[nH]2)c1O (stereo not shown) [Example 616]
< 300 | 92 | Cc1ccc(C(OC2CCN(C)CC2)c2nc3ccccc3[nH]2)cc1Br (stereo not shown) [Example 261, 2-[(3-bromo-4-methylphenyl)(1-methylpiperidin-4-yloxy)methyl]-1H-benzimidazole]
< 30 | 78 | CN1CCC(NC(c2cccc(OCc3ccccc3)c2)c2nc3ccccc3[nH]2)CC1 (stereo not shown) [Example 65, [(1H-benzimidazol-2-yl)(3-benzyloxyphenyl)methyl](1-methylpiperidin-4-yl)amine]
< 1000 | 102 | Cc1cc(F)cc(C(NC2CCN(C)CC2)c2nc3ccccc3s2)c1 (stereo not shown) [Example 44, [benzothiazol-2-yl(3-fluoro-5-methylphenyl)methyl](1-methylpiperidin-4-yl)amine]
< 30 | 126 | CN1CCC(OC(c2cccc(SCCCN)c2)c2nc3ccccc3[nH]2)CC1 (stereo not shown) [Example 368, 3-{3-[(1H-benzimidazol-2-yl)(1-methylpiperidin-4-yloxy)methyl]phenylsulfanyl}propylamine]
< 1000 | 140 | CN1CCC(OC(c2cccc(Br)c2)c2nc3cc(F)c(F)c(F)c3[nH]2)CC1 (stereo not shown) [Example 481, 2-[(3-bromophenyl)(1-methylpiperidin-4-yloxy)methyl]-5,6,7-trifluoro-1H-benzimidazole]
< 300 | 60 | CN1CCC(OC(c2cccc(SCCCCO)c2)c2nc3cc(F)c(F)cc3[nH]2)CC1 (stereo not shown) [Example 470]
< 300 | 140 | CN1CCC(OC(c2nc3ccccc3[nH]2)c2cc(Oc3ccccc3)ccc2O)CC1 (stereo not shown) [Example 609]
< 300 | 170 | CN1CCC(OC(c2cccc(-c3cnc(O)nc3)c2)c2nc3ccccc3s2)CC1 (stereo not shown) [Example 214, 5-{3-[benzothiazol-2-yl(1-methylpiperidin-4-yloxy)methyl]phenyl}pyrimidin-2-ol]
< 30 | 145 | CN1CCC(OC(c2nc3ccccc3[nH]2)c2cc(Br)ccc2O)CC1 (stereo not shown) [Example 575]
< 300 | 61 | CN1CCC(COC(c2cccc(Br)c2)c2nc3ccccc3[nH]2)C1 (stereo not shown) [Example 414, 2-[(3-bromo-phenyl)(1-methylpyrrolidin-3-ylmethoxy)methyl]-1H-benzimidazole]
< 1000 | 139 | CN1CCC(OC(c2nc3ccccc3[nH]2)c2cc(C(C)(C)C)ccc2O)CC1 (stereo not shown) [Example 590]
< 300 | 64 | CN1CCC(OC(c2cccc(OCCCCN3CCN(C(=O)OC(C)(C)C)CC3)c2)c2nc3ccccc3[nH]2)CC1 (stereo not shown) [Example 343, 4-(4-{3-[(1H-benzimidazol-2-yl)(1-methylpiperidin-4-yloxy)methyl]phenoxy}butyl)piperazine-1-carboxylic acid tert-butyl ester]
< 300 | 130 | CCOc1ccc(F)c(C(OC2CCN(C)CC2)c2nc3ccccc3[nH]2)c1F (stereo not shown) [Example 535]
< 1000 | 109 | CN1CCC(NC(c2cccnc2)c2nc3ccccc3s2)CC1 (stereo not shown) [Example 52, (benzothiazol-2-ylpyridin-3-ylmethyl)(1-methylpiperidin-4-yl)amine]
< 300 | 212 | CN1CCC(OC(c2nc3ccccc3[nH]2)c2ccccc2Cl)CC1 (stereo not shown) [Example 151, 2-[(2-chlorophenyl)(1-methylpiperidin-4-yloxy)methyl]-1H-benzimidazole]
< 1000 | 80 | CN1CCC(OC(c2cccc(SC(C)(C)CCO)c2)c2nc3ccccc3[nH]2)CC1 (stereo not shown) [Example 235, 3-{3-[(1H-benzimidazol-2-yl)(1-methylpiperidin-4-yloxy)methyl]phenylsulfanyl}-3-methyl-butan-1-ol]
< 1000 | 170.5 | CN1CCC(OC(c2ccccc2)c2nc3cccc(O)c3[nH]2)CC1 (stereo not shown) [Example 210, 2-[(1-methylpiperidin-4-yloxy)phenylmethyl]-3H-benzimidazol-4-ol]
< 30 | 142 | CN1CCC(OC(c2nc3ccccc3[nH]2)c2ccc(Cl)cc2O)CC1 (stereo not shown) [Example 585]

Ki or IC50 activity class [1] [nM] | melting point [°C] | SMILES
< 300 | 101 | CN1CCC(OC(c2cccc(C#CCN)c2)c2nc3ccccc3[nH]2)CC1 (stereo not shown) [Example 194, 3-{3-[(1H-benzimidazol-2-yl)(1-methylpiperidin-4-yloxy)methyl]phenyl}prop-2-ynylamine]
< 300 | 62 | CN1CCC(OC(c2cccc(SCC3=NCCN3)c2)c2nc3ccccc3[nH]2)CC1 (stereo not shown) [Example 468, 2-[[3-(4,5-dihydro-1H-imidazol-2-ylmethylsulfanyl)phenyl](1-methylpiperidin-4-yloxy)methyl]-1H-benzimidazole]
< 30 | 140 | CN1CCC(OC(c2nc3ccccc3[nH]2)c2ccc(F)cc2O)CC1 (stereo not shown) [Example 584]
< 300 | 97 | CN1CCC(OC(c2cccc(C#CC3CCCNC3)c2)c2nc3ccccc3[nH]2)CC1 (stereo not shown) [Example 380, 2-[(1-methylpiperidin-4-yloxy)(3-piperidin-3-ylethynylphenyl)methyl]-1H-benzimidazole]
< 300 | 120 to 122 | CC(O)CSc1cccc(C(OC2CCN(C)CC2)c2nc3ccccc3[nH]2)c1 (stereo not shown) [Example 247, 1-{3-[(1H-benzimidazol-2-yl)(1-methylpiperidin-4-yloxy)methyl]phenylsulfanyl}propan-2-ol]
< 300 | 104 to 108 | CN1CCC(OC(c2cccc(C#CCCO)c2)c2nc3ccccc3[nH]2)CC1 (stereo not shown) [Example 191, 4-{3-[(1H-benzimidazol-2-yl)(1-methylpiperidin-4-yloxy)methyl]phenyl}but-3-yn-1-ol]
< 30 | 90 | CCCOc1cccc(C(NC2CCN(C)CC2)c2nc3ccccc3s2)c1 (stereo not shown) [Example 42, [benzothiazol-2-yl(3-propoxyphenyl)methyl](1-methylpiperidin-4-yl)amine]
< 1000 | 86 | CN1CCC(OC(c2ccc(C(F)(F)F)cc2)c2nc3ccccc3[nH]2)CC1 (stereo not shown) [Example 537]
< 30 | 90 | Cc1ccc(C(OC2CCN(C)CC2)c2nc3cc(F)ccc3[nH]2)c(F)c1 (stereo not shown) [Example 548]
< 1000 | 131 | CN1CCC(OC(c2cccc(C#CC3CNC3)c2)c2nc3ccccc3[nH]2)CC1 (stereo not shown) [Example 388, 2-[(3-azetidin-3-ylethynylphenyl)(1-methylpiperidin-4-yloxy)methyl]-1H-benzimidazole]
< 30 | 120 | Cc1ccc(C(OC2CCN(C)CC2)c2nc3ccccc3[nH]2)c(C)c1 (stereo not shown) [Example 541]
– | 120 | CN1CCC(OC(c2ccccc2)c2nc3ccccc3s2)C1 (stereo not shown) (as salt: oxalate) [Example 2, 2-[(1-methylpyrrolidin-3-yloxy)phenyl-methyl]benzothiazole]
– | 175 | CN1CCC(OC(c2ccc(Cl)cc2)c2nc3ccccc3[nH]2)CC1 (stereo not shown) (as salt: oxalate) [Example 226, 2-[(4-chlorophenyl)(1-methylpiperidin-4-yloxy)methyl]-1H-benzimidazole]
– | 130 | CN1CCC(OC(c2cccc(-c3ccccc3Cl)c2)c2nc3ccccc3[nH]2)CC1 (stereo not shown) (as salt: oxalate) [Example 121, 2-[(2′-Chlorobiphenyl-3-yl)(1-methylpiperidin-4-yloxy)methyl]-1H-benzimidazole]
– | 93 | COC(=O)c1cccc(C(OC2CCN(C)CC2)c2nc3ccccc3s2)c1 (stereo not shown) (as salt: oxalate) [Example 199, 3-[benzothiazol-2-yl(1-methylpiperidin-4-yloxy)methyl]benzoic acid methyl ester]
– | 92 | CN1CCC(OC(c2cccc(Oc3ccccc3)c2)c2nc3ccccc3s2)CC1 (stereo not shown) (as salt: oxalate) [Example 28, 2-[(1-methylpiperidin-4-yloxy)(3-phenoxy-phenyl)methyl]benzothiazole]
– | 112 | CCN1CCC(OC(c2cccc(OCCN)c2)c2nc3ccccc3s2)CC1 (stereo not shown) (as salt: oxalate) [Example 290, 2-{3-[benzothiazol-2-yl(1-ethyl-piperidin-4-yloxy)methyl]phenoxy}ethylamine]
– | 136 | CN1CCC(OC(c2cccc(OCCF)c2)c2nc3ccccc3[nH]2)CC1 (stereo not shown) (as salt: oxalate) [Example 476]

SMILES | Ki or IC50 activity class [1] [nM] | melting point [°C]
CC(C)CCOc1cccc(C(NC2CCN(C)CC2)c2nc3ccccc3[nH]2)c1 (stereo not shown) [Example 68, {(1H-benzimidazol-2-yl)[3-(3-methylbutoxy)phenyl]methyl}(1-methylpiperidin-4-yl)amine] | < 300 | 70
CN1CCC(OC(c2cccc(CCCCCCNC(=N)NC(=O)OC(C)(C)C)c2)c2nc3ccccc3[nH]2)CC1 (stereo not shown) [Example 364, N-tert-butoxycarbonyl-N′-(6-{3-[(1H-benzimidazol-2-yl)(1-methylpiperidin-4-yloxy)methyl]phenyl}hexyl)guanidine] | < 1000 | 90
CN1CCC(OC(c2cccc(SCCNC(=N)NC(=O)OC(C)(C)C)c2)c2nc3ccccc3s2)CC1 (stereo not shown) [Example 304, N-tert-butoxycarbonyl-N′-(2-{3-[(benzothiazol-2-yl)(1-methylpiperidin-4-yloxy)methyl]phenylsulfanyl}ethyl)guanidine] | < 30 | 110
